Assay results published in patent US10988455B2, “1,2,4-triazine-4-amine derivatives” (Heptares Therapeutics Limited, priority 2010, dated 2021).

Experiments:
[1] = target: human adenosine A2a receptor (Homo sapiens (Human), UniProt P29274); experiment: HEK293-hA2a [3H]-ZM241385 binding assay (Test A); conditions: HEK293 membranes, 1 nM [3H]ZM241385, 25° C., 1 h
Procedure: (§1) All test compounds were prepared as a stock solution of 10 mM in 100% DMSO.

[2] = target: human adenosine A1 receptor (Homo sapiens (Human), UniProt P30542); experiment: CHO-hA1 [3H]DPCPX binding assay (Test A); conditions: CHO membranes, 1 nM [3H]DPCPX, 25° C., 1 h
Chain of human adenosine A1 receptor (P30542 whole entry): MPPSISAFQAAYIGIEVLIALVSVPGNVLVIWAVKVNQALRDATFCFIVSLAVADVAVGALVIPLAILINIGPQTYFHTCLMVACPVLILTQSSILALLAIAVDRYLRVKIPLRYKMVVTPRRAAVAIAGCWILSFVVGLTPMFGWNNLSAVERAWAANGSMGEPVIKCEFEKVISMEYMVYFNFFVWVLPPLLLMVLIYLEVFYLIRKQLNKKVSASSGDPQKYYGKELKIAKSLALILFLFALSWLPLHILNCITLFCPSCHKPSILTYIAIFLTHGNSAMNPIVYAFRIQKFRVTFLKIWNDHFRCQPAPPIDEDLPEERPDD
Procedure: as §1

[3] = system: haloperidol-induced catalepsy in rats; experiment: Catalepsy reversal test (Test B); format: in vivo, Sprague-Dawley rats; conditions: dose of 1 mg/kg p.o., 120 min pre-test time
Procedure: The dopamine D2 receptor antagonist, haloperidol, induces Parkinsonism in humans and induces motor effects in rats such as catalepsy. There is considerable evidence that adenosine A2A receptor antagonists reverse haloperidol-induced motor effects in preclinical studies. […] The present study determines the ability of haloperidol-induced catalepsy in rats to be reversed by novel A2A receptor antagonists.
Haloperidol (0.82 mg/kg, i.p.; 150 min pre-test time) induces significant cataleptic behaviour in rats (average score 3.1). The effect of selected compounds of the invention (2-10 mg/kg or 0.3-3 mg/kg, p.o.; 120 min pre-test time) on catalepsy was established by administration of said compounds to rats pre-treated with haloperidol as described above.
Details of a similar test may be found in, for example, Hodgson et al., J. Pharmacol. Exp. Ther. 330, 2009.

Chain of human adenosine A2a receptor (P29274 whole entry): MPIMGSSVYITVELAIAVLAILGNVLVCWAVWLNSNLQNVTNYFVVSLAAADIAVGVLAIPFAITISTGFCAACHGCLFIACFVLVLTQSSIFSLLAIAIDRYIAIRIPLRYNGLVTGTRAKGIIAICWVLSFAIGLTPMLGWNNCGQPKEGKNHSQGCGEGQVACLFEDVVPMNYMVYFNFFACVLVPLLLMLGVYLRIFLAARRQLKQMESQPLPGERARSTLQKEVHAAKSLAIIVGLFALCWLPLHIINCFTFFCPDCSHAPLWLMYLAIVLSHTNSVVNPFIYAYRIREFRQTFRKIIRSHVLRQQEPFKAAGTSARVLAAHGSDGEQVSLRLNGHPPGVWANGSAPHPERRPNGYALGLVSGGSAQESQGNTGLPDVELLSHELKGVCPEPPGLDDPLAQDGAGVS

## Cc1cc(-c2nnc(N)nc2-c2ccccc2F)cc(C(F)(F)F)n1 [1(cxci)]
[1]
  pKi A2a: 8.26
[2]
  pKi A1: 7.36
[3]
  reversal of cataleptic behavior in rats pre-treated with haloperidol: statistically significant

## Cc1cc(-c2nnc(N)nc2-c2ccccc2)cc(Cl)n1 [1(lvi)]
[1]
  pKi A2a: 8.22
[2]
  pKi A1: 7.33
[3]
  reversal of cataleptic behavior in rats pre-treated with haloperidol: statistically significant
